One block for each compound: values may come before it. Residues, ends and D or L forms follow the SMILES beside them.
Legend:
[1] = system: secondary adhesions; assay: Secondary adhesions after adhesiolysis in rats with mesh implants, Zuhlke score (Example 3); format: in vivo, Sprague-Dawley rats; conditions: three weeks after adhesiolysis and installation, six months after initial surgery
Method: Adhesions tend to recur once in place. We examined the effect of alanyl-glutamine treatment on such secondary adhesions. The modified caecal perforation with pulstring closure procedure described in Example 1 was performed on 9 Sprague-Dawley rats. These were divided into 5 groups, each group receiving a different form of mesh (INTERCEED™; PROCEED™; BARD™ composite; prolene; and a mesh which was allowed to be “infected” by repeated re-opening of the wound). The surgical procedure with mesh implacement was performed without application of a glutamine source. Six months after initial surgery, a laparotomy was performed on each rat then adhesiolysis followed by installation of alanyl-glutamine.

[2] = system: post-operative adhesion formation; assay: Surgery as in Example 1 with Marlex mesh inserted, Zuhlke adhesion score (Example 2); format: in vivo, rats; conditions: day 90
Method: Previous studies show a high incidence of adhesion formation when surgical mesh is employed as a reinforcing material [6a, 6b]. We repeated trials as described in Example 1, inserting Marlex™ mesh during the procedure on the surgical groups.
Severity of adhesions was assessed at day 90 using the adhesion score of Zuhlke, et al.. This scoring procedure has been described in the literature for assessment of other potential treatments for adhesions. […] This differs from previous measurements of adhesions using polypropylene mesh which reported up to about 90% adhesion formation [6a].

[3] = system: post-operative adhesion formation; assay: Modified cecal puncture abdominal surgery, histological assessment of post-operative adhesions (Example 1); format: in vivo, male Wistar rats; conditions: for complications due to intraperitoneal use: 0.3-1.5 g/kg intraperitoneally; for reducing and/or preventing post-operative adhesions (including secondary adhesions): administered intra-peritoneally; for acute inflammatory response (macrophages and macrophage chemotactic proteins): days 3-7, vs saline and non-treatment surgical groups
Method: 70 plus male Wistar rats (over 350 g each) were assessed histologically on post-operative days 1,3,5,7,10, 30, and at about 6 weeks. The rats were randomly distributed based on the mode of treatment, type of sutures and presence or absence of hemorrhage during surgery. Initially, there were three surgery groups (alanyl-glutamine treatment, saline, no treatment) plus a control (no surgery).
The rats were anaesthetized with halothane/Ketamine. Open surgery involving a midline sub-umbilical incision and a modified cecal puncture with pulstring to prevent soilage after abdominal closure was done. The procedure involved some fecal extrusion, mimicking clinical scenarios of iatrogenic/traumatic perforations of the bowel. Alanyl-glutamine [Degussa; Coubevoie, France] […] (1.5 g/kg) was instilled into the peritoneal cavity from a syringe. The cecum, abdomen, and the skin were closed in layers using the same suture. Various absorbable (3/0 Vicryl™, 3/0 Monocryl™, 3/0 PDS™, 2/0 Maxon™) and non-absorbable sutures (3/0 Prolene™, 3/0 Ethibond™, 4/0 & 5/0 Surgilene™, 3/0 Novafil™) were used. The wound was infiltrated with local anesthetic. The animals were given sufficient chow to eat (20 g/day≈2 mmole/kg/day). The gastrointestinal tract and omentum were harvested from the stomach to the sigmoid colon and fixed in formaldehyde solution for evaluation.
The severity of adhesions was assessed histologically using standard Haematoxylin & Eosin and Masson trichrome stained slides. The latter helped delineate the degree of fibrosis and collagen deposition.
Semi-quantitative analysis was done by scoring the average number of milky spots per high-power-field (HPF). Quantitative statistical analysis was done using the T-test between the experimental groups. Milky spots are a marker for inflammation and adhesion formation.

[4] = system: post-operative adhesion formation; assay: as above; format: in vivo, male Wistar rats; conditions: 0.3 g/kg intraperitoneal

complications due to intraperitoneal use [3]: did not observe complications
SMILES: C[C@H](N)C(=O)N[C@@H](CCC(N)=O)C(=O)O [alanyl-glutamine] (H-Ala-Gln-OH)
recurrence of adhesions (secondary adhesions), scored according to Zuhlke, et al. [1]: no secondary adhesions were seen
adhesion score of Zuhlke, et al. [2]: 0-1
effectiveness of dosage ([3]; 1.5 g/kg intraperitoneal): effective
histological appearance of the peritoneum (adhesion) ([3]; 10th post-operative day, intraperitoneal, vs untreated and saline treated surgical groups): very minimal adhesion
reducing and/or preventing post-operative adhesions (including secondary adhesions) ([3]; summary statement): effective
milky spots per 5 high power field (5HPF) in the peritoneum ([3]; controls 1 per 5HPF, untreated surgical group 6-7): the same as the controls
acute inflammatory response (macrophages and macrophage chemotactic proteins) [3]: markedly reduced
adhesions in all the suture groups (braided and monofilament, absorbable and non-absorbable) ([3]; intraperitoneal): prevented adhesions
effect in adhesion prevention compared with L-glutamine ([3]; summary statement): more pronounced
effectiveness of dosage [4]: effective

complications due to intraperitoneal use [3]: did not observe complications
SMILES: NC(=O)CC[C@H](N)C(=O)O [L-glutamine]
reducing and/or preventing post-operative adhesions (including secondary adhesions) ([3]; summary statement): effective
acute inflammatory response (macrophages and macrophage chemotactic proteins) [3]: reduction, but to a lesser extent

From patent US10799622B2, “Reducing post-operative adhesion formation with intraperitoneal glutamine” (AdeTherapeutics Inc., priority 2005, dated 2020)
